Assays:
[1] = system: Meloidogyne incognita; experiment: Nematode test, J2 infective juveniles of Meloidogyne incognita, mortality; conditions: 12.5 ppm; J2 infective juveniles suspended in solution; mortality after three days
[2] = system: Phytophthora infestans lycopersici; assay type: in vivo; conditions: METHOD 2 (unbanded)
[3] = system: Musca domestica; conditions: 500 ppm by weight; knockdown assessed 15 minutes after treatment
[4] = system: Puccinia recondita; experiment: Fungicidal test, Puccinia recondita (PUCCRT) on wheat, PRCO; assay type: in vivo; conditions: METHOD 2 (unbanded)
[5] = system: Septoria nodorum; experiment: Fungicidal test, Septoria nodorum (LEPTNO) on wheat, PRCO; assay type: in vivo; conditions: METHOD 2 (unbanded)
[6] = system: Erysiphe graminis f.sp. tritici; experiment: Fungicidal test, Erysiphe graminis f.sp. tritici (ERYSGT) on wheat, PRCO; assay type: in vivo; conditions: 1 d Prot/Foir; METHOD 2 (unbanded)

| SMILES | MELGIN = Meloidogyne incognita, grading of mortality (score) [1] | PHYTIN 1 d Prot/Foir PRCO [2] | MUSCDO AC = Musca domestica (knockdown), score [3] | PUCCRT 1 d Prot/Foir PRCO [4] | LEPTNO 1 d Prot/Foir PRCO [5] | ERYSGT 1 d Prot/Foir PRCO [6] |
| --- | --- | --- | --- | --- | --- | --- |
| Cc1nsc(NC(=O)Cc2ccc3oc(-c4cccnc4Cl)nc3c2)c1Cl [343(A3)] | 0 (0 indicates less than 40% mortality) | – | – | – | – | – |
| CCCc1nc2cc(CC(=O)N(CC)c3snc(C)c3Cl)ccc2o1 [4(C3)] | 0 (0 indicates less than 40% mortality) | 79 | 0 (0 indicates less than 40% mortality) | 96 | – | – |
| CCCc1nc2cc(CC(=O)N(COCCOC)c3snc(C)c3Cl)ccc2o1 [4(M3)] | 0 (0 indicates less than 40% mortality) | 81 | 0 (0 indicates less than 40% mortality) | 85 | – | – |
| Cc1nsc(NC(=O)Cc2ccc3oc(-c4ccc([N+](=O)[O-])cc4Cl)nc3c2)c1Cl [267(A3)] | 0 (0 indicates less than 40% mortality) | – | – | – | – | – |
| Cc1nsc(NC(=O)Cc2ccc3oc(S)nc3c2)c1Cl [352(A3)] | 0 (0 indicates less than 40% mortality) | 100 | 0 (0 indicates less than 40% mortality) | 100 | – | – |
| CCCc1nc2cc(CC(=O)N(COCC)c3snc(C)c3Cl)ccc2o1 [4(L3)] | 0 (0 indicates less than 40% mortality) | 100 | 9 (9 indicates 80-100% mortality) | 100 | – | – |
| Cc1nsc(NC(=O)Cc2ccc3oc(C4CCCCC4)nc3c2)c1Cl [35(A3)] | 0 (0 indicates less than 40% mortality) | 84 | 0 (0 indicates less than 40% mortality) | 100 | −15 | 93 |
| CCCc1nc2cc(CC(=O)N(CCC)c3snc(C)c3Cl)ccc2o1 [4(D3)] | 0 (0 indicates less than 40% mortality) | 96 | 0 (0 indicates less than 40% mortality) | 90 | – | – |
| CCCc1nc2cc(CC(=O)N(COC)c3snc(C)c3Cl)ccc2o1 [4(K3)] | 0 (0 indicates less than 40% mortality) | 98 | 0 (0 indicates less than 40% mortality) | 100 | – | – |
| COCN(C(=O)Cc1ccc2oc(CC(C)(C)C)nc2c1)c1snc(C)c1Cl [15(K3)] | 0 (0 indicates less than 40% mortality) | – | 0 (0 indicates less than 40% mortality) | – | – | – |
| C#CCN(C(=O)Cc1ccc2oc(C)nc2c1)c1snc(C)c1Cl [2(F3)] | 0 (0 indicates less than 40% mortality) | 100 | 0 (0 indicates less than 40% mortality) | 90 | – | – |
| Cc1nsc(NC(=O)Cc2ccc3oc(Cl)nc3c2)c1Cl [174(A3)] | 0 (0 indicates less than 40% mortality) | – | 0 (0 indicates less than 40% mortality) | – | – | – |
| Cc1nsc(NC(=O)Cc2ccc3oc(Cc4cccs4)nc3c2)c1Cl [334(A3)] | 0 (0 indicates less than 40% mortality) | – | – | – | – | – |
| COCCOCN(C(=O)Cc1ccc2oc(C)nc2c1)c1snc(C)c1Cl [2(M3)] | 0 (0 indicates less than 40% mortality) | 83 | 0 (0 indicates less than 40% mortality) | 68 | – | – |
| C=CCN(C(=O)Cc1ccc2oc(CCC)nc2c1)c1snc(C)c1Cl [4(E3)] | 0 (0 indicates less than 40% mortality) | 95 | 0 (0 indicates less than 40% mortality) | 97 | – | – |
| C=CCN(C(=O)Cc1ccc2oc(CC(C)(C)C)nc2c1)c1snc(C)c1Cl [15(E3)] | 0 (0 indicates less than 40% mortality) | 83 | 0 (0 indicates less than 40% mortality) | 74 | – | – |

| SMILES | MELGIN = Meloidogyne incognita, grading of mortality (score) [1] | PHYTIN 1 d Prot/Foir PRCO [2] | MUSCDO AC = Musca domestica (knockdown), score [3] | PUCCRT 1 d Prot/Foir PRCO [4] | LEPTNO 1 d Prot/Foir PRCO [5] | ERYSGT 1 d Prot/Foir PRCO [6] |
| --- | --- | --- | --- | --- | --- | --- |
| Cc1nsc(NC(=O)Cc2ccc3oc(-c4ccccc4F)nc3c2)c1Cl [272(A3)] | 0 (0 indicates less than 40% mortality) | – | – | – | – | – |
| Cc1nsc(NC(=O)Cc2ccc3oc(-c4ccno4)nc3c2)c1Cl [349(A3)] | 0 (0 indicates less than 40% mortality) | – | – | – | – | – |
| Cc1nc2cc(CC(=O)N(C)c3snc(C)c3Cl)ccc2o1 [2(B3)] | 0 (0 indicates less than 40% mortality) | 100 | 9 (9 indicates 80-100% mortality) | 96 | – | – |
| C#CCN(C(=O)Cc1ccc2oc(CC(C)(C)C)nc2c1)c1snc(C)c1Cl [15(F3)] | 0 (0 indicates less than 40% mortality) | 100 | 0 (0 indicates less than 40% mortality) | 95 | – | – |
| CCOCN(C(=O)Cc1ccc2oc(C)nc2c1)c1snc(C)c1Cl [2(L3)] | 0 (0 indicates less than 40% mortality) | 82 | 9 (9 indicates 80-100% mortality) | 93 | – | – |
| CCCN(C(=O)Cc1ccc2oc(C)nc2c1)c1snc(C)c1Cl [2(D3)] | 0 (0 indicates less than 40% mortality) | 59 | 0 (0 indicates less than 40% mortality) | 96 | – | – |
| CCCc1nc2cc(CC(=O)N(C)c3snc(C)c3Cl)ccc2o1 [4(B3)] | 0 (0 indicates less than 40% mortality) | 100 | 0 (0 indicates less than 40% mortality) | 48 | – | – |
| C=CCN(C(=O)Cc1ccc2oc(C)nc2c1)c1snc(C)c1Cl [2(E3)] | 0 (0 indicates less than 40% mortality) | 98 | 0 (0 indicates less than 40% mortality) | 99 | – | – |
| COCCOCN(C(=O)Cc1ccc2oc(CC(C)(C)C)nc2c1)c1snc(C)c1Cl [15(M3)] | 0 (0 indicates less than 40% mortality) | 98 | 0 (0 indicates less than 40% mortality) | 6 | – | – |
| C#CCN(C(=O)Cc1ccc2oc(CCC)nc2c1)c1snc(C)c1Cl [4(F3)] | 0 (0 indicates less than 40% mortality) | 99 | 0 (0 indicates less than 40% mortality) | 100 | – | – |
| Cc1nsc(NC(=O)Cc2ccc3oc(SCC#N)nc3c2)c1Cl [228(A3)] | 0 (0 indicates less than 40% mortality) | 66 | 0 (0 indicates less than 40% mortality) | 6 | – | – |
| CCN(C(=O)Cc1ccc2oc(C)nc2c1)c1snc(C)c1Cl [2(C3)] | 0 (0 indicates less than 40% mortality) | 150 | 9 (9 indicates 80-100% mortality) | 74 | – | – |
| CC=Cc1nc2cc(CC(=O)Nc3snc(C)c3Cl)ccc2o1 [45(A3)] | 0 (0 indicates less than 40% mortality) | – | 9 (9 indicates 80-100% mortality) | – | – | – |
| Cc1nsc(NC(=O)Cc2ccc3oc(C(F)(F)C(F)(F)Cl)nc3c2)c1Cl [86(A3)] | 0 (0 indicates less than 40% mortality) | – | – | – | – | – |
| COCN(C(=O)Cc1ccc2oc(C)nc2c1)c1snc(C)c1Cl [2(K3)] | 0 (0 indicates less than 40% mortality) | 98 | 9 (9 indicates 80-100% mortality) | 97 | – | – |
